Data reported in patent US20060111341A1, “Use of galanthamine and the derivatives thereof in the production of medicaments” (priority 2003, published 2006).

Assays:
Butyrylcholinesterase = Butyrylcholinesterase (Homo sapiens, UniProt P06276); assay: biochemical
Acetylcholinesterase = Acetylcholinesterase (Homo sapiens, UniProt P22303); assay: biochemical
Chain of Acetylcholinesterase (P22303 32-614): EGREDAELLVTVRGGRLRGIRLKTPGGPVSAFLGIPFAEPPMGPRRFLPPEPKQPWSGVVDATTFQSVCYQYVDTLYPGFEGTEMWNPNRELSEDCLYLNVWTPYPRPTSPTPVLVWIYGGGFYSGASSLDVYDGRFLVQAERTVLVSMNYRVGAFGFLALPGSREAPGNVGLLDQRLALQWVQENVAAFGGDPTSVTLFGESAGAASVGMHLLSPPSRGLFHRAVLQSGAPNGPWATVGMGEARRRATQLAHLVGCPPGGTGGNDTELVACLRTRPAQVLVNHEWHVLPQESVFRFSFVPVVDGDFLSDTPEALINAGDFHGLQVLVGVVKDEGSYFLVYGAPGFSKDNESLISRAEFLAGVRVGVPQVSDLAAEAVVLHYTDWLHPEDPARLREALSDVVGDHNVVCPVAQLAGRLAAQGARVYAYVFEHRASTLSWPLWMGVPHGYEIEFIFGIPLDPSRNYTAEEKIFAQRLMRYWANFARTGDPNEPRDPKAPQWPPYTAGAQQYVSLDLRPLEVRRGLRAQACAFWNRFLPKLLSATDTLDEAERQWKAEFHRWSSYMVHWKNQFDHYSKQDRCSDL

Chain of Butyrylcholinesterase (P06276 29-602): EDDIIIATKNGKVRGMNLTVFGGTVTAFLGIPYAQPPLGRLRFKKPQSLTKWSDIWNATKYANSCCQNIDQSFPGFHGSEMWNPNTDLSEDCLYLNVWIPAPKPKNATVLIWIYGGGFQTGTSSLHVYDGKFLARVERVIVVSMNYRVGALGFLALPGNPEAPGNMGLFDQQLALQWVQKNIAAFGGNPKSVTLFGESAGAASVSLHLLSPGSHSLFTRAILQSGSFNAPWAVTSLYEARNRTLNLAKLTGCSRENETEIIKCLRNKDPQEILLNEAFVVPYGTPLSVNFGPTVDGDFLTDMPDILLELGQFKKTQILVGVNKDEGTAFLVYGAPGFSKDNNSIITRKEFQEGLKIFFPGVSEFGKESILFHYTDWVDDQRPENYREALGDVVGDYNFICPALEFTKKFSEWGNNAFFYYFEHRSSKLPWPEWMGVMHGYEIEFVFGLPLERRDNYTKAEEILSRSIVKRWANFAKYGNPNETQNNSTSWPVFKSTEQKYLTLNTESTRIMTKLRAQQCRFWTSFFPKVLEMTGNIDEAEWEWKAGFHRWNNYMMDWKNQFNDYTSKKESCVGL

| Compound | IC50 (Butyrylcholinesterase) [µM] | IC50 (Acetylcholinesterase) [µM] |
| --- | --- | --- |
| COC(=O)/C=C(\C(=O)OC)N1CCC23C=C[C@H](O)CC2Oc2c(OC)ccc(c23)C1 (mixture of isomers) [Nr 108] | 80 | 140 |
| COc1ccc2c3c1OC1C[C@@H](O)C=CC31CCN(CCC(=O)NC(C)C)C2 (mixture of isomers) [Nr 109] | 36 | 54.5 |
| CCOC(=O)/C=C/N1CCC23C=C[C@H](O)CC2Oc2c(OC)ccc(c23)C1 (mixture of isomers) [Nr 110] | > 100 | 50 |
| COc1ccc2c3c1OC1C[C@@H](O)C=CC31CCN(C(=O)N[C@H](C)c1ccccc1)C2 (mixture of isomers) [Nr 112] | > 100 | 30 |
| COc1ccc2c3c1OC1C[C@@H](O)C=CC31CCC(N)C2 (mixture of isomers) [Nr 140] | > 100 | 5.3 |
| COc1cc(C)c2c3c1OC1C[C@@H](O)C=CC31CCN(C)C2C#N (mixture of isomers) [Nr 145] | > 100 | 80 |
| CCCCNC(=O)O[C@H]1C=C[C@@]23CCN(C)Cc4ccc(OC)c(c42)O[C@H]3C1 [Nr 1] | 4.8 | > 100 |
| COc1ccc2c3c1O[C@@H]1C[C@H](O)C=C[C@]31CC[N+](C)(CCN1CCOCC1)C2 (stereo partly shown) [Nr 12] | 13 | 57 |
| C#CC[N+]1(C)CC[C@@]23C=C[C@H](O)C[C@@H]2Oc2c(OC)ccc(c23)C1 (stereo partly shown) [Nr 16] | 1.7 | 1.4 |
| COc1cc([N+](=O)[O-])c2c3c1O[C@H]1C[C@@H](O)C=C[C@@]31CCN(C)C2 [Nr 45] | 25 | > 100 |
| COc1cc(N)c2c3c1O[C@H]1C[C@@H](O)C=C[C@@]31CCN(C)C2 [Nr 48] | 4.9 | 77 |
| COc1ccc2c3c1O[C@H]1C[C@@H](O)C=C[C@@]31CC[N+](C)(CC1CC1)C2 (stereo partly shown) [Nr 53] | 3.6 | 1.2 |
| COc1ccc2c3c1O[C@H]1C[C@@H](O)C=C[C@@]31CC[N+](C)(CC=C(C)C)C2 (stereo partly shown) [Nr 54] | 0.21 | 0.2 |
| COc1cc(N(C)C)c2c3c1O[C@H]1C[C@@H](O)C=C[C@@]31CCN(C)C2 [Nr 56] | 0.47 | > 100 |
| COc1ccc2c3c1O[C@H]1C[C@@H](O)C=C[C@@]31CC[N+](C)(Cc1ccc(Br)cc1)C2 (stereo partly shown) [Nr 58] | 0.6 | 0.2 |
| COc1ccc2c3c1O[C@H]1C[C@H](N)C=C[C@@]31CCN(C)C2 [Nr 84] | 6 | 40 |
| COc1ccc2c3c1O[C@H]1C[C@@H](O)C=C[C@@]31CCN(C(=O)Nc1ccccc1C(F)(F)F)C2 [Nr 111] | > 100 | 30 |
| COc1ccc2c3c1O[C@H]1C[C@@H](O)C=C[C@@]31CCN(C(N)=O)C2 [Nr 113] | > 100 | 44 |
| COc1ccc2c3c1O[C@H]1C[C@@H](O)C=C[C@@]31CCN(C(=O)NC(C)C)C2 [Nr 114] | 10 | 2.6 |
| COc1ccc2c3c1O[C@H]1C[C@@H](O)C=C[C@@]31CCN(C(=O)NC(C)(C)C)C2 [Nr 115] | 7 | 2.5 |
| COc1ccc2c3c1O[C@H]1C[C@@H](O)C=C[C@@]31CCN(/C(=N/C#N)SC)C2 [Nr 117] | 30 | 6.7 |
| CN1CC[C@@]23C=C[C@H](O)C[C@@H]2Oc2c(Oc4ccccc4)ccc(c23)C1 [Nr 118] | 3.4 | 21 |
| COc1ccc2c3c1O[C@H]1C[C@@H](O)C=C[C@@]31CCN(CCC(=O)O)C2 [Nr 120] | 40 | 42 |
| COc1ccc2c3c1O[C@H]1C[C@@H](O)C=C[C@@]31CCN(c1ccccc1)C2 [Nr 123] | 0.24 | 0.5 |

| Compound | IC50 (Butyrylcholinesterase) [µM] | IC50 (Acetylcholinesterase) [µM] |
| --- | --- | --- |
| COc1ccc2c3c1O[C@H]1C[C@@H](O)C=C[C@@]31CCN(c1cccs1)C2 [Nr 124] | 0.54 | 4 |
| COc1ccc2c3c1O[C@@H]1C[C@H](O)C=C[C@]31CCN(C(=O)NC(C)C)C2 [Nr 126] | 90 | 8 |
| COc1ccc2c3c1O[C@H]1C[C@@H](O)C=C[C@@]31CC[N+](C)=C2 [Nr 127] | 1.5 | 0.3 |
| COc1ccc2c3c1O[C@H]1C[C@@H](O)C=C[C@@]31CCN(CCCN1CCCCC1)C2 [Nr 128] | 1.5 | 0.3 |
| CNC(=S)N1CC[C@@]23C=C[C@H](O)C[C@@H]2Oc2c(OC)ccc(c23)C1 [Nr 129] | 63 | 18.5 |
| CC(C)NC(=O)N1CC[C@@]23C=C[C@H](O)C[C@@H]2Oc2c(O)ccc(c23)C1 [Nr 130] | 60 | 6.3 |
| COc1ccc2c3c1O[C@H]1C[C@@H](O)C=C[C@@]31CCN(CC1CC1)C2 [Nr 131] | 1.2 | 0.7 |
| COc1ccc2c3c1O[C@H]1C[C@@H](O)C=C[C@@]31CCN(C)C2C#N (stereo partly shown) [Nr 133] | > 100 | 0.8 |
| COc1ccc2c3c1O[C@H]1C[C@@H](O)C=C[C@@]31CCN(C)C2C (stereo partly shown) [Nr 135] | 25 | 4.2 |
| COc1ccc2c3c1O[C@H]1C[C@@H](O)C=C[C@@]31CCN(C(=O)Oc1ccccc1)C2 [Nr 137] | > 100 | 46 |
| COc1cc(C)c2c3c1O[C@H]1C[C@H](O)C=C[C@@]31CCN(CCCN1CCCCC1)C2 [Nr 138] | 70 | > 100 |
| COc1ccc2c3c1O[C@H]1C[C@@H](O)C=C[C@@]31CCN(C(=O)OC(C)(C)C)C2 [Nr 139] | > 100 | 23 |
| COc1ccc2c3c1O[C@H]1C[C@@H](O)C=C[C@@]31CCN(CCN)C2 [Nr 141] | 2.1 | 1.3 |
| COc1ccc2c3c1O[C@H]1C[C@@H](O)C=C[C@@]31CCN(CCCN1CC3CC1CN3c1ccc(F)cc1)C2 (stereo partly shown) [Nr 142] | 2.4 | 3 |
| COc1ccc2c3c1O[C@H]1C[C@@H](O)C=C[C@@]31CCN(CC(=O)N1CC3CC1CN3c1ccccc1)C2 (stereo partly shown) [Nr 143] | 2.4 | 8.4 |
| COc1ccc2c3c1O[C@H]1C[C@@H](O)C=C[C@@]31CCN(CCCO)C2 [Nr 144] | 5 | 2.8 |
| C=CCCC(=O)N1CC[C@@]23C=C[C@H](O)C[C@@H]2Oc2c(OC)ccc(c23)C1 [Nr 147] | 2.6 | 8.4 |
| COc1ccc2c3c1O[C@H]1C[C@@H](O)C=C[C@@]31CCN(C1CCN(C(=O)c3ccccc3)CC1)C2 [Nr 148] | 3 | 24 |
| COc1ccc2c3c1O[C@H]1C[C@@H](O)C=C[C@@]31CCN(C(=S)Oc1ccccc1)C2 [Nr 149] | > 100 | 7.2 |
| COc1ccc2c3c1O[C@@H]1C[C@H](O)C=C[C@]31CCN(CCCN1CCCCC1)C2 [Nr 153] | 23 | 9 |
| COc1cc2c(cc1OC)C(=O)C(CCCCN1CC[C@@]34C=C[C@H](O)C[C@@H]3Oc3c(OC)ccc(c34)C1)C2 (stereo partly shown) [Nr 154] | 0.8 | 0.02 |
| CCCN1CC[C@@]23C=C[C@H](O)C[C@@H]2Oc2c(OC)ccc(c23)C1 [Nr 155] | 1.5 | 0.3 |
| COc1ccc2c(c1)CC(CCCCN1CC[C@@]34C=C[C@H](O)C[C@@H]3Oc3c(OC)ccc(c34)C1)C2=O (stereo partly shown) [Nr 157] | 0.8 | 0.022 |
